Reference: patent US7192906B2, “Substituted pyrazole derivatives, production process thereof, and herbicide compositions containing the derivatives” (SDS Biotech K.K., priority 2001, dated 2007)

How the values were obtained:
Type in all cases: in vivo
Setaria viridis [1] = experiment: Test Example 1 upland field foliage treatment; conditions: Table 4, upland field foliage treatment, index 0-5
Procedure, shortened: (§1)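 Scored 0–5 (0: under 10%, 5: 90% or more effect or phytotoxicity) on day 21 after treatment; plants sown in upland soil received a leaf-surface spray 14 days post-sowing of diluted wettable powder delivering 1 kg active ingredient/ha.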

Stellaria media [2] = experiment: Test Example 1 upland field foliage treatment; conditions: Table 4, upland field foliage treatment, index 0-5
Procedure, shortened: as §1

Digitaria adscendens [3] = experiment: Test Example 1 upland field foliage treatment; conditions: Table 4, upland field foliage treatment, index 0-5
Procedure, shortened: as §1

Chenopodium album [4] = experiment: Test Example 1 upland field foliage treatment; conditions: Table 4, upland field foliage treatment, index 0-5
Procedure, shortened: as §1

Setaria viridis [5] = experiment: Test Example 2 upland soil treatment; conditions: Table 5, upland soil treatment, index 0-5
Procedure, shortened: (§2)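 Pre-emergence soil treatment: seeds sown in upland soil in pots and covered with about 1 cm soil. Next day, a water-diluted wettable powder was sprayed evenly on the soil surface at 1 kg active ingredient per hectare. Weed control or crop injury was scored 0–5 (10% to ≥90% bands) 21 days later.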

Stellaria media [6] = experiment: Test Example 2 upland soil treatment; conditions: Table 5, upland soil treatment, index 0-5
Procedure, shortened: as §2

Digitaria adscendens [7] = experiment: Test Example 2 upland soil treatment; conditions: Table 5, upland soil treatment, index 0-5
Procedure, shortened: as §2

Chenopodium album [8] = experiment: Test Example 2 upland soil treatment; conditions: Table 5, upland soil treatment, index 0-5
Procedure, shortened: as §2

[9] = system: wheat (Triticum aestivum); experiment: Test Example 2 upland soil treatment, crop phytotoxicity; conditions: Table 5, upland soil treatment, index 0-5
Procedure, shortened: as §2

soybean (Glycine max) [10] = experiment: as above; conditions: Table 5, upland soil treatment, index 0-5
Procedure, shortened: as §2

Scirpus juncoides = experiment: Test Example 3 paddy field treatment; conditions: paddy field treatment, wettable powder, active ingredient 1 kg per hectare, 21st day after the dropping, index 0-5
Procedure, shortened: (§3)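 Scoring used a 0–5 scale of herbicidal effect or phytotoxicity, from <10% to ≥90%, taken 21 days after treatment. Treatment was 1 kg a.i./ha as diluted wettable powder dripped onto 4 cm-deep flooded pots sown with the weeds, 10 days after transplanting two-leaf Koshihikari rice.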

Echinochloa crusgalli = experiment: Test Example 3 paddy field treatment; conditions: paddy field treatment, wettable powder, active ingredient 1 kg per hectare, 21st day after the dropping, index 0-5
Procedure, shortened: as §3

Monochoria vaginalis = experiment: Test Example 3 paddy field treatment; conditions: paddy field treatment, wettable powder, active ingredient 1 kg per hectare, 21st day after the dropping, index 0-5
Procedure, shortened: as §3

Ammannia multiflora = experiment: Test Example 3 paddy field treatment; conditions: paddy field treatment, wettable powder, active ingredient 1 kg per hectare, 21st day after the dropping, index 0-5
Procedure, shortened: as §3

Rice (Oryza sativa) = experiment: Test Example 3 paddy field treatment, crop phytotoxicity; conditions: paddy field treatment, transplanted rice Koshihikari, wettable powder, active ingredient 1 kg per hectare, 21st day after the dropping, index 0-5
Procedure, shortened: as §3

[11] = system: wheat (Triticum aestivum); experiment: Test Example 1 upland field foliage treatment, crop phytotoxicity; conditions: Table 4, upland field foliage treatment, index 0-5
Procedure, shortened: as §1

soybean (Glycine max) [12] = experiment: as above; conditions: Table 4, upland field foliage treatment, index 0-5
Procedure, shortened: as §1

| SMILES | Herbicidal activity SV: Setaria viridis (Setaria viridis [1]) | Herbicidal activity SM: Stellaria media (Stellaria media [2]) | Herbicidal activity DA: Digitaria adscendens (Digitaria adscendens [3]) | Herbicidal activity CA: Chenopodium album (Chenopodium album [4]) | Herbicidal activity SV: Setaria viridis (Setaria viridis [5]) | Herbicidal activity SM: Stellaria media (Stellaria media [6]) | Herbicidal activity DA: Digitaria adscendens (Digitaria adscendens [7]) | Herbicidal activity CA: Chenopodium album (Chenopodium album [8]) | Herbicidal activity (phytotoxicity) TA: Wheat (Triticum aestivum) [9] | Herbicidal activity (phytotoxicity) GM: Soybean (Glycine max) (soybean (Glycine max) [10]) | Herbicidal activity SJ (Scirpus juncoides) | Herbicidal activity EC (Echinochloa crusgalli) | Herbicidal activity MV (Monochoria vaginalis) | Herbicidal activity AM (Ammannia multiflora) | Herbicidal activity OS (phytotoxicity to rice) (Rice (Oryza sativa)) | Herbicidal activity (phytotoxicity) TA: Wheat (Triticum aestivum) [11] | Herbicidal activity (phytotoxicity) GM: Soybean (Glycine max) (soybean (Glycine max) [12]) |
| --- | --- | --- | --- | --- | --- | --- | --- | --- | --- | --- | --- | --- | --- | --- | --- | --- | --- |
| CNC(=O)C(Cn1cc(C)c(-c2ccc(Oc3ccccc3)cc2)n1)=NOC [Compound 53] | 4 (herbicidal effect of not less than 70% and less than 90%, or phytotoxicity of 70% or more and less than 90%) | 4 (herbicidal effect of not less than 70% and less than 90%, or phytotoxicity of 70% or more and less than 90%) | 5 (herbicidal effect of not less than 90%, or phytotoxicity of 90% or more) | 5 (herbicidal effect of not less than 90%, or phytotoxicity of 90% or more) | 3 (herbicidal effect of not less than 50% and less than 70%, or phytotoxicity of 50% or more and less than 70%) | 4 (herbicidal effect of not less than 70% and less than 90%, or phytotoxicity of 70% or more and less than 90%) | 5 (herbicidal effect of not less than 90%, or phytotoxicity of 90% or more) | 4 (herbicidal effect of not less than 70% and less than 90%, or phytotoxicity of 70% or more and less than 90%) | 0 (herbicidal effect of not less than 0% and less than 10%, or phytotoxicity of 0% or more and less than 10%) | 0 (herbicidal effect of not less than 0% and less than 10%, or phytotoxicity of 0% or more and less than 10%) | 5 (herbicidal effect of not less than 90%, or phytotoxicity of 90% or more) | 5 (herbicidal effect of not less than 90%, or phytotoxicity of 90% or more) | 5 (herbicidal effect of not less than 90%, or phytotoxicity of 90% or more) | 5 (herbicidal effect of not less than 90%, or phytotoxicity of 90% or more) | 0 (herbicidal effect of not less than 0% and less than 10%, or phytotoxicity of 0% or more and less than 10%) | 0 (herbicidal effect of not less than 0% and less than 10%, or phytotoxicity of 0% or more and less than 10%) | 0 (herbicidal effect of not less than 0% and less than 10%, or phytotoxicity of 0% or more and less than 10%) |
| CNC(=O)C(Cn1cc(C)c(-c2ccccc2)n1)=NOC [Compound 18] | 5 (herbicidal effect of not less than 90%, or phytotoxicity of 90% or more) | 5 (herbicidal effect of not less than 90%, or phytotoxicity of 90% or more) | 5 (herbicidal effect of not less than 90%, or phytotoxicity of 90% or more) | 5 (herbicidal effect of not less than 90%, or phytotoxicity of 90% or more) | 5 (herbicidal effect of not less than 90%, or phytotoxicity of 90% or more) | 5 (herbicidal effect of not less than 90%, or phytotoxicity of 90% or more) | 5 (herbicidal effect of not less than 90%, or phytotoxicity of 90% or more) | 5 (herbicidal effect of not less than 90%, or phytotoxicity of 90% or more) | 0 (herbicidal effect of not less than 0% and less than 10%, or phytotoxicity of 0% or more and less than 10%) | 0 (herbicidal effect of not less than 0% and less than 10%, or phytotoxicity of 0% or more and less than 10%) | 5 (herbicidal effect of not less than 90%, or phytotoxicity of 90% or more) | 5 (herbicidal effect of not less than 90%, or phytotoxicity of 90% or more) | 5 (herbicidal effect of not less than 90%, or phytotoxicity of 90% or more) | 5 (herbicidal effect of not less than 90%, or phytotoxicity of 90% or more) | 0 (herbicidal effect of not less than 0% and less than 10%, or phytotoxicity of 0% or more and less than 10%) | 0 (herbicidal effect of not less than 0% and less than 10%, or phytotoxicity of 0% or more and less than 10%) | 0 (herbicidal effect of not less than 0% and less than 10%, or phytotoxicity of 0% or more and less than 10%) |
| CNC(=O)C(Cn1cc(C)c(-c2ccc(OC)cc2)n1)=NOC [Compound 41, 2-methoxyimino-3-((4′-methoxyphenyl)-4-methyl-pyrazole)-1-yl-propanoic acid-N-methylamide] | 5 (herbicidal effect of not less than 90%, or phytotoxicity of 90% or more) | 5 (herbicidal effect of not less than 90%, or phytotoxicity of 90% or more) | 5 (herbicidal effect of not less than 90%, or phytotoxicity of 90% or more) | 5 (herbicidal effect of not less than 90%, or phytotoxicity of 90% or more) | 5 (herbicidal effect of not less than 90%, or phytotoxicity of 90% or more) | 5 (herbicidal effect of not less than 90%, or phytotoxicity of 90% or more) | 5 (herbicidal effect of not less than 90%, or phytotoxicity of 90% or more) | 5 (herbicidal effect of not less than 90%, or phytotoxicity of 90% or more) | 0 (herbicidal effect of not less than 0% and less than 10%, or phytotoxicity of 0% or more and less than 10%) | 1 (herbicidal effect of not less than 10% and less than 30%, or phytotoxicity of 10% or more and less than 30%) | 5 (herbicidal effect of not less than 90%, or phytotoxicity of 90% or more) | 5 (herbicidal effect of not less than 90%, or phytotoxicity of 90% or more) | 5 (herbicidal effect of not less than 90%, or phytotoxicity of 90% or more) | 5 (herbicidal effect of not less than 90%, or phytotoxicity of 90% or more) | 0 (herbicidal effect of not less than 0% and less than 10%, or phytotoxicity of 0% or more and less than 10%) | 0 (herbicidal effect of not less than 0% and less than 10%, or phytotoxicity of 0% or more and less than 10%) | 1 (herbicidal effect of not less than 10% and less than 30%, or phytotoxicity of 10% or more and less than 30%) |
